Measurements from US20240190890A1, “MK2 INHIBITORS AND USES THEREOF” (Bristol-Myers Squibb Company, priority 2022, published 2024).

Each compound was assayed against p38a activated, mitogen-activated protein kinase-activated protein kinase 2 (MAPKAP-K2 or MK2) enzyme (Homo sapiens (Human), UniProt P49137) (assay: MK2 Omnia continuous-read kinase assay for compound potency). Settings: [MK-2]=0.4 nM, [ATP]=10 μM, [ST3-Sox]=10 μM; room temperature.
Assay type: biochemical
Method in brief: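 Continuous Sox-peptide fluorescence read (ex360/em485) every 71 s over 2 h at room temperature. Reactions: 10 μM each of ATP (at apparent Km) and S/T3-Sox, 0.4 nM p38a-activated MK2, pH 7.5 Tris/MgCl2 buffer. Initial rates yield % inhibition and IC50; single-exponential kobs values yield apparent kinact/KI.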

p38a activated, mitogen-activated protein kinase-activated protein kinase 2 (MAPKAP-K2 or MK2) enzyme, sequence (P49137 whole entry): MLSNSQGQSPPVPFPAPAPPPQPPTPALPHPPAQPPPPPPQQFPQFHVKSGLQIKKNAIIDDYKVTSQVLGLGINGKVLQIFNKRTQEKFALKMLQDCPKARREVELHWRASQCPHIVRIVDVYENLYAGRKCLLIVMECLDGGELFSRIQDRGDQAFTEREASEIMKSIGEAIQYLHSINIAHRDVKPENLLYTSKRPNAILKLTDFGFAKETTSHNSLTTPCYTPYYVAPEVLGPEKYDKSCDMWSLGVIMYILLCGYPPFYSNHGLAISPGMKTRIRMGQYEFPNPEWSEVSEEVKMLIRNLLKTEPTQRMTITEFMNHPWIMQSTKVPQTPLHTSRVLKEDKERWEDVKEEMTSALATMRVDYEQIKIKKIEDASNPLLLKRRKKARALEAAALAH

SMILES	IC50
C#Cc1cc(-c2ccc3c(ccc4sc5c(c43)NC[C@@H](C)NC5=O)n2)c(OCCN2CCCC2)nn1 [Example I-120, (R)-3-(6-ethynyl-3-(2-(pyrrolidin-1-yl)ethoxy)pyridazin-4-yl)-10-methyl-9,10,11,12-tetrahydro-8H-[1,4]diazepino[5′,6′:4,5]thieno[3,2-f]quinolin-8-one]	45 nM
C[C@@H]1CNc2c(sc3ccc4nc(-n5ccnc5Cl)ccc4c23)C(=O)N1 [Example I-205, (R)-3-(2-chloro-1H-imidazol-1-yl)-10-methyl-9,10,11,12-tetrahydro-8H-[1,4]diazepino[5′,6′:4,5]thieno[3,2-f]quinolin-8-one]	97 nM
C=Cc1cc(-c2ccc3c(ccc4sc5c(c43)NC[C@@H](C)NC5=O)n2)c(CN2CCOCC2)cn1 [Example I-153, (R)-10-methyl-3-(5-(morpholinomethyl)-2-vinylpyridin-4-yl)-9,10,11,12-tetrahydro-8H-[1,4]diazepino[5′,6′:4,5]thieno[3,2-f]quinolin-8-one]	23 nM
[2H]C([2H])([2H])N1CCN(c2cc(-c3ccc4c(ccc5sc6c(c54)NC[C@@H](C)NC6=O)n3)cc(C=C)n2)CC1 [Example I-171, (R)-10-methyl-3-(2-(4-(methyl-d3)piperazin-1-yl)-6-vinylpyridin-4-yl)-9,10,11,12-tetrahydro-8H-[1,4]diazepino[5′,6′:4,5]thieno[3,2-f]quinolin-8-one]	13 nM
C[C@@H]1CNc2c(sc3ccc4nc(-c5cc(C#CC(C)(C)N)nc(Cl)n5)ccc4c23)C(=O)N1 [Example I-63, (R)-3-(6-(3-amino-3-methylbut-1-yn-1-yl)-2-chloropyrimidin-4-yl)-10-methyl-9,10,11,12-tetrahydro-8H-[1,4]diazepino[5′,6′:4,5]thieno[3,2-f]quinolin-8-one]	145 nM
C/C=C/c1ncc(COCC)c(-c2ccc3c(ccc4sc5c(c43)NC[C@@H](C)NC5=O)n2)n1 [Example I-48, (R,E)-3-(5-(ethoxymethyl)-2-(prop-1-en-1-yl)pyrimidin-4-yl)-10-methyl-9,10,11,12-tetrahydro-8H-[1,4]diazepino[5′,6′:4,5]thieno[3,2-f]quinolin-8-one]	371 nM
C=Cc1cc(-c2ccc3c(ccc4sc5c(c43)NC[C@@H](C)NC5=O)n2)nc(N2CCN(C)CC2)n1 [Example I-19, (R)-10-methyl-3-(2-(4-methylpiperazin-1-yl)-6-vinylpyrimidin-4-yl)-9,10,11,12-tetrahydro-8H-[1,4]diazepino[5′,6′:4,5]thieno[3,2-f]quinolin-8-one]	4 nM
C=Cc1noc(C)c1-c1ccc2c(ccc3sc4c(c32)NC[C@@H](C)NC4=O)n1 [Example I-227, (R)-10-methyl-3-(5-methyl-3-vinylisoxazol-4-yl)-9,10,11,12-tetrahydro-8H-[1,4]diazepino[5′,6′:4,5]thieno[3,2-f]quinolin-8-one]	418 nM
C=Cc1cc(-c2ccc3c(ccc4sc5c(c43)NC[C@@H](C)NC5=O)n2)cc(CN2CCC(F)(F)CC2)n1 [Example I-123, (R)-3-(2-((4,4-difluoropiperidin-1-yl)methyl)-6-vinylpyridin-4-yl)-10-methyl-9,10,11,12-tetrahydro-8H-[1,4]diazepino[5′,6′:4,5]thieno[3,2-f]quinolin-8-one]	31 nM
C=Cc1ncc(C)c(-c2ccc3c(ccc4sc5c(c43)NC[C@@H](C)NC5=O)n2)n1 [Example I-33, (R)-10-methyl-3-(5-methyl-2-vinylpyrimidin-4-yl)-9,10,11,12-tetrahydro-8H-[1,4]diazepino[5′,6′:4,5]thieno[3,2-f]quinolin-8-one]	120 nM
C[C@@H]1CNc2c(sc3ccc4nc(-c5nc(Cl)ncc5C(F)(F)F)ccc4c23)C(=O)N1 [Example I-4, (R)-3-(2-chloro-5-(trifluoromethyl)pyrimidin-4-yl)-10-methyl-9,10,11,12-tetrahydro-8H-[1,4]diazepino[5′,6′:4,5]thieno[3,2-f]quinolin-8-one]	1 nM
C=Cc1cc(-c2ccc3c(ccc4sc5c(c43)NC[C@@H](C)NC5=O)n2)cc(N2CCOCC2)n1 [Example I-156, (R)-10-methyl-3-(2-morpholino-6-vinylpyridin-4-yl)-9,10,11,12-tetrahydro-8H-[1,4]diazepino[5′,6′:4,5]thieno[3,2-f]quinolin-8-one]	23 nM
C[C@@H]1CNc2c(sc3ccc4nc(-n5cc(Cl)cn5)ccc4c23)C(=O)N1 [Example I-152, (R)-3-(4-chloro-1H-pyrazol-1-yl)-10-methyl-9,10,11,12-tetrahydro-8H-[1,4]diazepino[5′,6′:4,5]thieno[3,2-f]quinolin-8-one]	86 nM
C=Cc1nccn1-c1ccc2c(ccc3sc4c(c32)NC[C@@H](CF)NC4=O)n1 [Example I-255, (S)-10-(fluoromethyl)-3-(2-vinyl-1H-imidazol-1-yl)-9,10,11,12-tetrahydro-8H-[1,4]diazepino[5′,6′:4,5]thieno[3,2-f]quinolin-8-one]	1 nM
C=Cc1cc(-c2ccc3c(ccc4sc5c(c43)NC[C@@H](C)NC5=O)n2)c(OC)nn1 [Example I-127, (R)-3-(3-methoxy-6-vinylpyridazin-4-yl)-10-methyl-9,10,11,12-tetrahydro-8H-[1,4]diazepino[5′,6′:4,5]thieno[3,2-f]quinolin-8-one]	50 nM
C#Cc1cc(-c2ccc3c(ccc4sc5c(c43)NC[C@@H](C)NC5=O)n2)nc(CO)n1 [Example I-78, (R)-3-(6-ethynyl-2-(hydroxymethyl)pyrimidin-4-yl)-10-methyl-9,10,11,12-tetrahydro-8H-[1,4]diazepino[5′,6′:4,5]thieno[3,2-f]quinolin-8-one]	1 nM

Further compounds by falling IC50, results first:

IC50	SMILES
1000 nM	[2H]C([2H])([2H])C(O)(c1cnc(C=C)cc1-c1ccc2c(ccc3sc4c(c32)NC[C@@H](C)NC4=O)n1)C([2H])([2H])[2H] [Example I-258, (R)-3-(5-(2-hydroxypropan-2-yl-1,1,1,3,3,3-d6)-2-vinylpyridin-4-yl)-10-methyl-9,10,11,12-tetrahydro-8H-[1,4]diazepino[5′,6′:4,5]thieno[3,2-f]quinolin-8-one]
765 nM	C/C=C\c1ncc(F)c(-c2ccc3c(ccc4sc5c(c43)NC[C@@H](C)NC5=O)n2)n1 [Example I-46, (R,Z)-3-(5-fluoro-2-(prop-1-en-1-yl)pyrimidin-4-yl)-10-methyl-9,10,11,12-tetrahydro-8H-[1,4]diazepino[5′,6′:4,5]thieno[3,2-f]quinolin-8-one]
674 nM	C=Cc1cc(-c2ccc3c(ccc4sc5c(c43)NC[C@@H](C)NC5=O)n2)cc(N2CCC(C(F)(F)F)CC2)n1 [Example I-202, (R)-10-methyl-3-(2-(4-(trifluoromethyl)piperidin-1-yl)-6-vinylpyridin-4-yl)-9,10,11,12-tetrahydro-8H-[1,4]diazepino[5′,6′:4,5]thieno[3,2-f]quinolin-8-one]
194 nM	C#Cc1cccc(-c2ccc3c(ccc4sc5c(c43)NC[C@@H](C)NC5=O)n2)n1 [Example I-56, (R)-3-(6-ethynylpyridin-2-yl)-10-methyl-9,10,11,12-tetrahydro-8H-[1,4]diazepino[5′,6′:4,5]thieno[3,2-f]quinolin-8-one]
101 nM	C=Cc1cnn(-c2ccc3c(ccc4sc5c(c43)NC[C@@H](C)NC5=O)n2)c1 [Example I-148, (R)-10-methyl-3-(4-vinyl-1H-pyrazol-1-yl)-9,10,11,12-tetrahydro-8H-[1,4]diazepino[5′,6′:4,5]thieno[3,2-f]quinolin-8-one]
98 nM	C#Cc1cc(-c2ccc3c(ccc4sc5c(c43)NC[C@@H](C)NC5=O)n2)cc(N2CCN(CC)CC2)n1 [Example I-174, (R)-3-(2-(4-ethylpiperazin-1-yl)-6-ethynylpyridin-4-yl)-10-methyl-9,10,11,12-tetrahydro-8H-[1,4]diazepino[5′,6′:4,5]thieno[3,2-f]quinolin-8-one]
75 nM	C#Cc1cc(-c2ccc3c(ccc4sc5c(c43)NC[C@@H](C)NC5=O)n2)cc(Cl)n1 [Example I-73, (R)-3-(2-chloro-6-ethynylpyridin-4-yl)-10-methyl-9,10,11,12-tetrahydro-8H-[1,4]diazepino[5′,6′:4,5]thieno[3,2-f]quinolin-8-one]
73 nM	C#Cc1cc(N2CCN(C)CC2)nc(-c2ccc3c(ccc4sc5c(c43)NC[C@@H](C)NC5=O)n2)n1 [Example I-61, (R)-3-(4-ethynyl-6-(4-methylpiperazin-1-yl)pyrimidin-2-yl)-10-methyl-9,10,11,12-tetrahydro-8H-[1,4]diazepino[5′,6′:4,5]thieno[3,2-f]quinolin-8-one]
58 nM	C=Cc1cc(-c2ccc3c(ccc4sc5c(c43)NC[C@@H](C)NC5=O)n2)cc(Cl)n1 [Example I-72, (R)-3-(2-chloro-6-vinylpyridin-4-yl)-10-methyl-9,10,11,12-tetrahydro-8H-[1,4]diazepino[5′,6′:4,5]thieno[3,2-f]quinolin-8-one]
40 nM	C/C=C/c1cc(-c2ccc3c(ccc4sc5c(c43)NC[C@@H](C)NC5=O)n2)nc(COCC)n1 [Example I-35, (R,E)-3-(2-(ethoxymethyl)-6-(prop-1-en-1-yl)pyrimidin-4-yl)-10-methyl-9,10,11,12-tetrahydro-8H-[1,4]diazepino[5′,6′:4,5]thieno[3,2-f]quinolin-8-one]
38 nM	C#Cc1cc(-c2ccc3c(ccc4sc5c(c43)NC[C@@H](C)NC5=O)n2)nc(C#CC(C)(C)N)n1 [Example I-67, (R)-3-(2-(3-amino-3-methylbut-1-yn-1-yl)-6-ethynylpyrimidin-4-yl)-10-methyl-9,10,11,12-tetrahydro-8H-[1,4]diazepino[5′,6′:4,5]thieno[3,2-f]quinolin-8-one]
1 nM	C=Cc1cc(-c2ccc3c(ccc4sc5c(c43)NC[C@@H](C)NC5=O)n2)ccn1 [Example I-55, (R)-10-methyl-3-(2-vinylpyridin-4-yl)-9,10,11,12-tetrahydro-8H-[1,4]diazepino[5′,6′:4,5]thieno[3,2-f]quinolin-8-one]
